{"source": "patent US20240374528A1", "about": "“[…] DOSAGE FORMS COMPRISING DEUTETRABENAZINE” (AUSPEX PHARMACEUTICALS, INC., priority 2021, published 2024)", "origin": "cited, not measured here", "conditions": "relative to tetrabenazine; U.S. Pat. No. 8,524,733"}
{"smiles": "[2H]C([2H])([2H])Oc1cc2c(cc1OC([2H])([2H])[2H])[C@H]1CC(=O)[C@H](CC(C)C)CN1CC2", "note": "[Deutetrabenazine, (RR,SS)-1,3,4,6,7,11b-hexahydro-9,10-di(methoxy-D3)-3-(2-methylpropyl)-2H-benzo[a]quinolizin-2-one]", "values": [{"measurement": "half-life of active metabolites", "result": "increased half-life of its active metabolites"}]}
